Like-named read-outs stand apart in the source and are kept apart here.
Experiments:
MEF-IGF1R cells = assay: Proliferation/viability of MEF-IGF1R (Thymidine [14C] incorporation); type: cell-based; details: rhIGF1 100 ng/mL, incubation 72 hours, read-out: Test C IC50
Description: C) Measurement of the Proliferation/Viability of MEF-IGF1R
Cell culture: the MEF-IGF1R cells (stable clone of cells transfected with the receptor hIGF-1R) are cultured at 37° C. under 5% CO2 in EMEM medium containing 10% FCS.
Test procedure: the cells are seeded at 5000 cells per well in 96-well Cytostar plates (Amersham) with 0.2 mL of EMEM culture medium at 37° C. for 18 hours. The cells are then washed twice with EMEM medium and left to culture without serum for 24 hours. The compounds are then added at various concentrations in the presence of rhIGF1 (100 ng/mL) and 0.1 μCi of Thymidine [^14C] (specific activity ˜50 mCi/mmol) to give 0.2 mL of volume per well. After incubation for 72 hours in the presence of the compound, at 37° C. under 5% CO2, the incorporation of Thymidine [^14C] is measured by counting the radioactivity on a Microbeta trilux counter (Perkin-Elmer). The IC50 is determined from 10 increasing concentrations of the compound.
(§1) (i) The tests are performed in duplicate and the mean of the two tests is calculated.
(§2) (ii) The value of the signal of the maximum response is calculated from the positive control: cells stimulated with IGF1 without compound.
(§3) (iii) Value of the signal of the minimum response is calculated from the negative control: cells not stimulated with IGF1 without compound.
(§4) (iv) By using these values as maximum (100%) and minimum (0%), respectively, the data were normalized so as to give a percentage of the maximum response.
(§5) (v) A curve of dose response is plotted and the IC50 (the concentration of which the compound induces a 50% decrease in the signal) of the compound is calculated by non-linear regression analysis.

[1] = biological target: T1, human cytoplasmic domain of IGF-1R (Homo sapiens, UniProt P08069); assay: Kinase IGF-1R test: inhibition of autophosphorylation of the enzyme (HTRF); type: biochemical; details: ATP 120 μM
T1 construct: The human cytoplasmic domain of IGF-1R was cloned by fusion with glutathione S-transferase (GST); made in house; host or cells: SF21 insect cells (baculovirus, pFastBac-GST)
Description: A) Experimental Protocol for the Kinase IGF-1R Test:
The inhibitory activity of the compounds on IGF1R is determined by measuring the inhibition of autophosphorylation of the enzyme using a time-resolved fluorescence test (HTRF). The human cytoplasmic domain of IGF-1R was cloned by fusion with glutathione S-transferase (GST) in the baculovirus expression vector pFastBac-GST. The protein is expressed in the SF21 cells and purified to about 80% homogeneity. For the enzymatic test, the test compound at 10 mM dissolved in DMSO is diluted in ⅓ steps in a 50 mM Hepes, pH 7.5, 5 mM MnCl2, 50 mM NaCl, 3% Glycerol, 0.025% Tween 20 buffer. To measure the inhibition, the successive dilutions of the compound are preincubated for 30 minutes and 90 minutes in the presence of 5 nM of enzyme, the final DMSO concentration not exceeding 1%. The enzymatic reaction is initiated to have a final ATP concentration of 120 μM, and is stopped after 5 minutes by addition of 100 mM Hepes, pH 7.0 buffer containing 0.4 M of potassium fluoride, 133 mM EDTA, 0.1% BSA, the XL665-labelled antibody anti-GST and the anti-phosphotyrosine antibody conjugated to europium cryptate Eu—K (Cis-Bio Int.). The characteristics of the two fluorophores, XL-665 and Eu—K, are available in G. Mathis et al., Anticancer Research, 1997, 17, pages 3011-3014. The energy transfer between the excited europium cryptate to the acceptor XL665 is proportional to the degree of autophosphorylation of IGF-1R. The specific long-lasting signal of XL-665 is measured in a GENios Pro TECAN plate counter. The inhibition of autophosphorylation of IGF-1R at time 30 minutes and 90 minutes with the test compounds of the invention is calculated relative to a 1% in DMSO control, whose activity is measured in the absence of compound. The curve representing the percentage of inhibition as a function of the log of the concentration is established to determine the concentration corresponding to 50% inhibition (IC50),

IGF-1R in MCF7 cells = IGF-1R in MCF7 cells (Homo sapiens, UniProt P08069); assay: Autophosphorylation of IGF-1R in MCF7 cells after stimulation with IGF-1 (ELISA); type: cell-based; design: endogenous in cells; host or cells: MCF-7 cells; details: MCF-7 cells, compound added one hour before stimulation with IGF1; read-out: Test B IC50
Description: B) Measurement of the Autophosphorylation of IGF-1R in MCF7 Cells after Stimulation with IGF-1
Cell Culturing and Execution of the Test:
The autophosphorylation of IGF1R in the IGF1-induced cells is evaluated by means of an ELISA technique (Enzyme Linked ImmunoSorbent Assay). The MCF-7 are seeded at 60 000 cells per well in 6-well plates and incubated at 37° C., 5% CO2 in medium containing 10% serum. After one night in 10% serum, the cells are deprived of serum for 24 hours. The compounds are added to the medium one hour before stimulation with IGF1. After 10 minutes of stimulation with IGF1, the cells are lysed with a buffer (Hepes 50 mM pH 7.6, Triton X100 1%, orthovanadate 2 mM, protease inhibitor cocktail). The cell lysates are incubated on a 96-well plate precoated with an anti-IGF1R antibody, followed by incubation with an anti-phosphotyrosine antibody coupled to the enzyme peroxidase. The level of peroxidase activity (measured by OD with a luminescent substrate) reflects the phosphorylation status of the receptor.
as §1, §2, §3, §4, §5

[2] = preincubation 30 minutes with 5 nM enzyme, read-out: Test A 30′ IC50
[3] = preincubation 90 minutes with 5 nM enzyme, read-out: Test A 90′ IC50

T1 sequence (P08069 960-1367 limits assumed): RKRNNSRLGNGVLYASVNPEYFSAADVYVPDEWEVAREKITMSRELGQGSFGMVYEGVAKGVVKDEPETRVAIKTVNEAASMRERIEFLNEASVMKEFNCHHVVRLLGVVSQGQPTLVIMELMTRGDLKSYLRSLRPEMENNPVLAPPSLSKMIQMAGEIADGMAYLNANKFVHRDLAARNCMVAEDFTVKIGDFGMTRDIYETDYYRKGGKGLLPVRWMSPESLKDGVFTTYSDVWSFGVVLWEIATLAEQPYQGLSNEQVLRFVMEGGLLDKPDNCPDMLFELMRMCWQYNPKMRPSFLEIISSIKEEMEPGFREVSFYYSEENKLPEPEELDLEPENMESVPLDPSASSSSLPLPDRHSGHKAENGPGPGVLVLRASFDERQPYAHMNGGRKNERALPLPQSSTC
Chain of IGF-1R in MCF7 cells (P08069 31-1367): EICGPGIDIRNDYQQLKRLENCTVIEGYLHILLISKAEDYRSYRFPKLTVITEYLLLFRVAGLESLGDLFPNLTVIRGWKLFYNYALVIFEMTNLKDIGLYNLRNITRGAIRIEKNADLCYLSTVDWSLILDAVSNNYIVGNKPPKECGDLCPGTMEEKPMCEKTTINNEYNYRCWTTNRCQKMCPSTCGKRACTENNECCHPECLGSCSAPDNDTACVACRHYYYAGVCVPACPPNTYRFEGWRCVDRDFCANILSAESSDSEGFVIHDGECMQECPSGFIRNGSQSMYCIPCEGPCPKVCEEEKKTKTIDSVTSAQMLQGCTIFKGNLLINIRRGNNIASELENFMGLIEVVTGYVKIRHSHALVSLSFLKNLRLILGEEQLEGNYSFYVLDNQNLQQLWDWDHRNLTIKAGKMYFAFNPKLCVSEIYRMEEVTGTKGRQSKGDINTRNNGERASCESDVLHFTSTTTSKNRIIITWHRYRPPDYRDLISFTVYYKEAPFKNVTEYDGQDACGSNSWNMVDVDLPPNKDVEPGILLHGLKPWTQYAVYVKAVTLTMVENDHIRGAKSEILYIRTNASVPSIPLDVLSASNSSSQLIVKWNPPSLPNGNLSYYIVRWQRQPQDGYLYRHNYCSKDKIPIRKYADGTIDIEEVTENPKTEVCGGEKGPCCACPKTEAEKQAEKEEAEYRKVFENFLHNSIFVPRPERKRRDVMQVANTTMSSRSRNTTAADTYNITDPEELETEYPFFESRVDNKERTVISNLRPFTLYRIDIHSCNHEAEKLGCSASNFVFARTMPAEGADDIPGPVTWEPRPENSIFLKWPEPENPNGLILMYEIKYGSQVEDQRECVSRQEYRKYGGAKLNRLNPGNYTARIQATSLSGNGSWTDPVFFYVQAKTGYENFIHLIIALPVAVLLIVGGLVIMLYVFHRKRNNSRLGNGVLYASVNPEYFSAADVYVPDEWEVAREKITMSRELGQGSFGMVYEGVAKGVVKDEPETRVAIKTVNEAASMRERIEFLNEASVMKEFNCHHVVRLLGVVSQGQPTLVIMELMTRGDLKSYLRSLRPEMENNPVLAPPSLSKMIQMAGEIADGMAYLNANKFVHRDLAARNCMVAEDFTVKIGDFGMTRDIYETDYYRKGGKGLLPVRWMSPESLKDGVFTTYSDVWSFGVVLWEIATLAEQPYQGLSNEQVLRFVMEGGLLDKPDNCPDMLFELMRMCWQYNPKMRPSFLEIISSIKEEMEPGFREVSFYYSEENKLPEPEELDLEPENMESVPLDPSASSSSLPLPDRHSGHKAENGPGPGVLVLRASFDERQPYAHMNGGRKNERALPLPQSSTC

Compound	IC50 (MEF-IGF1R cells)	IC50 [1, 2]	IC50 [1, 3]	IC50 (IGF-1R in MCF7 cells)
1-{4-[(5,5-dimethyl-2,4-dioxo-3-{4-[(trifluoro-methyl)thio]phenyl}imidazolidin-1-yl)methyl]pyridin-2-yl}-3-(2-morpholin-4-ylethyl)urea [Example 33]	> 100 nM	10 to 100 nM	10 to 100 nM	
1-{4-[(5,5-dimethyl-2,4-dioxo-3-{4-[(trifluoro-methyl)thio]phenyl}imidazolidin-1-yl)methyl]pyridin-2-yl}-3-[2-(4-methylpiperazin-1-yl)ethyl]urea [Example 32]	> 100 nM	10 to 100 nM	10 to 100 nM	
CC1(C)C(=O)N(c2ccc(SC(F)(F)F)cc2)C(=O)N1Cc1ccnc(NC(=O)NC2CC(CO)C2)c1 (mixture of isomers) [Example 40B Stage a), 1-{4-[(5,5-dimethyl-2,4-dioxo-3-{4-[(trifluoro-methyl)thio]phenyl}imidazolidin-1-yl)methyl]pyridin-2-yl}-3-[3-(hydroxymethyl)cyclobutyl]urea]		10 to 100 nM	< 10 nM	
CC1(C)C(=O)N(c2ccc(SC(F)(F)F)cc2)C(=O)N1Cc1ccnc(Nc2cc(Cl)ccc2Cl)c1 [Example 1, 1-({2-[(2,5-dichlorophenyl)amino]pyridin-4-yl}-methyl)-5,5-dimethyl-3-{4-[(trifluoromethyl)thio]phenyl}imidazolidine-2,4-dione]	10 to 100 nM	> 100 nM	> 100 nM	> 100 nM
CC1(C)C(=O)N(c2ccc(SC(F)(F)F)cc2)C(=O)N1Cc1ccnc(NC(=O)N2CCCCC2)c1 [Example 2, N-{4-[(5,5-dimethyl-2,4-dioxo-3-{4-[(trifluoro-methyl)thio]phenyl}imidazolidin-1-yl)methyl]pyridin-2-yl}piperidine-1-carboxamide]	10 to 100 nM	10 to 100 nM	10 to 100 nM	< 10 nM
CC1(C)C(=O)N(c2ccc(SC(F)(F)F)cc2)C(=O)N1Cc1ccnc(NC(=O)c2ccc(Cl)c(Cl)c2)c1 [Example 3, 3,4-dichloro-N-{4-[(5,5-dimethyl-2,4-dioxo-3-{4-[(trifluoromethyl)thio]phenyl}imidazolidin-1-yl)methyl]pyridin-2-yl}benzamide]	10 to 100 nM	> 100 nM	> 100 nM	> 100 nM
CNC(=O)Nc1cc(CN2C(=O)N(c3ccc(S(=O)(=O)C(F)(F)F)cc3)C(=O)C2(C)C)ccn1 [Example 4, 1-{4-[(5,5-dimethyl-2,4-dioxo-3-{4-[(trifluoro-methyl)sulfonyl]phenyl}imidazolidin-1-yl)methyl]pyridin-2-yl}-3-methylurea]	10 to 100 nM	> 100 nM	10 to 100 nM	< 10 nM
CC1(C)C(=O)N(c2ccc(SC(F)(F)F)cc2)C(=O)N1Cc1ccnc(Nc2cc(F)ccc2F)c1 [Example 5, 1-({2-[(2,5-difluorophenyl)amino]pyridin-4-yl}-methyl)-5,5-dimethyl-3-{4-[(trifluoromethyl)thio]phenyl}imidazolidine-2,4-dione]	10 to 100 nM	10 to 100 nM		> 100 nM
CN(C)C(=O)Nc1nccc(CN2C(=O)N(c3ccc(SC(F)(F)F)cc3)C(=O)C2(C)C)n1 [Example 10, 3-{4-[(5,5-dimethyl-2,4-dioxo-3-{4-[(trifluoro-methyl)thio]phenyl}imidazolidin-1-yl)methyl]pyrimidin-2-yl}-1,1-dimethylurea]	> 100 nM	> 100 nM	> 100 nM	
CN(C)C(=O)Nc1nccc(CN2C(=O)N(c3ccc(S(=O)(=O)C(F)(F)F)cc3)C(=O)C2(C)C)n1 [Example 12, 3-{4-[(5,5-dimethyl-2,4-dioxo-3-{4-[(trifluoro-methyl)sulfonyl]phenyl}imidazolidin-1-yl)methyl]pyrimidin-2-yl}-1,1-dimethylurea]	> 100 nM	> 100 nM	> 100 nM	
CC1(C)C(=O)N(c2ccc(SC(F)(F)F)cc2)C(=O)N1Cc1ccnc(Nc2cncc(F)c2)c1 [Example 17, 1-({2-[(5-fluoropyridin-3-yl)amino]pyridin-4-yl}-methyl)-5,5-dimethyl-3-{4-[(trifluoromethyl)thio]phenyl}imidazolidine-2,4-dione]	> 100 nM	> 100 nM	10 to 100 nM	
CC1(C)C(=O)N(c2ccc(SC(F)(F)F)cc2)C(=O)N1Cc1ccnc(NC(=O)NC2CCCCC2)c1 [Example 25, 1-cyclohexyl-3-{4-[(5,5-dimethyl-2,4-dioxo-3-{4-[(trifluoromethyl)thio]phenyl}imidazolidin-1-yl)methyl]pyridin-2-yl}urea]	> 100 nM	> 100 nM	10 to 100 nM	
CC1(C)C(=O)N(c2ccc(SC(F)(F)F)cc2)C(=O)N1Cc1ccnc(NC(=O)NCCN2CCCCC2)c1 [Example 31, 1-{4-[(5,5-dimethyl-2,4-dioxo-3-{4-[(trifluoro-methyl)thio]phenyl}imidazolidin-1-yl)methyl]pyridin-2-yl}-3-(2-piperidin-1-ylethyl)urea]	> 100 nM	> 100 nM	10 to 100 nM	
CCCCNC(=O)Nc1cc(CN2C(=O)N(c3ccc(SC(F)(F)F)cc3)C(=O)C2(C)C)ccn1 [Example 37, 1-butyl-3-{4-[(5,5-dimethyl-2,4-dioxo-3-{4-[(tri-fluoromethyl)thio]phenyl}imidazolidin-1-yl)methyl]pyridin-2-yl}urea]	10 to 100 nM	> 100 nM	10 to 100 nM	
CN(C)CCCNC(=O)Nc1cc(CN2C(=O)N(c3ccc(SC(F)(F)F)cc3)C(=O)C2(C)C)ccn1 [Example 38, 1-[3-(dimethylamino)propyl]-3-{4-[(5,5-dimethyl-2,4-dioxo-3-{4-[(trifluoromethyl)thio]phenyl}imidazolidin-1-yl)methyl]pyridin-2-yl}urea]	> 100 nM	10 to 100 nM	10 to 100 nM	
CN(C)CCCCNC(=O)Nc1cc(CN2C(=O)N(c3ccc(SC(F)(F)F)cc3)C(=O)C2(C)C)ccn1 [Example 40, 1-[4-(dimethylamino)butyl]-3-{4-[(5,5-dimethyl-2,4-dioxo-3-{4-[(trifluoromethyl)thio]phenyl}imidazolidin-1-yl)-methyl]pyridin-2-yl}urea]	> 100 nM	10 to 100 nM	< 10 nM	
